Experimental data reported in US20190381180A1, “HYBRID CARRIERS FOR NUCLEIC ACID CARGO” (CureVac AG, priority 2016, published 2019).

Legend:
[1] = tested on: HepG2 cells (human liver carcinoma cell line); assay: Transfection efficiency on HepG2 cells in vitro (GpLuc luminescence in supernatant); format: cell-based; settings: GpLuc mRNA, 24 h (FIG. 2A)
Description: This example describes the evaluation of the effect of different polymer-lipid formulations on transfection efficiency on HepG2 cells (human liver carcinoma cell line). As a read-out for transfection efficiency, GpLuc mRNA (SEQ ID NO:14) was used as a cargo.
Successful transfection with the cargo leads to the translation of the luciferase protein and to a secretion of Gp luciferase protein into the cell culture supernatant.
A volume of 0.2 mL HepG2 cells (10.000 cells) were seeded in a 96 well tissue culture plate. After removing the medium from each well, 100 μL RPMI 1640 medium (with 1% Penicillin and 1% Streptomycin, 1% L-Glutamin) was added to each well. Afterwards, HepG2 cells were transfected with 100 μL transfection mix (in triplicates) of polymer-lipid mRNA complexes (prepared according to Example 3) and respective controls (in triplicates), and cells were incubated at 37° C. and 5% CO2 for 90 minutes. […] Twenty-four hours post transfection, 10 μL of supernatant of each well was extracted and used for further luminescence analysis (see below).
A volume of 10 μL supernatant was transferred to a 96 well plate for GpLuc measurement. […] A volume of 100 μL coelenterazine working solution was used as a substrate for GpLuc and measured after 5 seconds in a commercially available microplate reader.

[2] = tested on: Sol8 cells; assay: Transfection of Sol8 muscle cells in vitro; format: cell-based, Mus musculus; settings: very small amount of lipid, in combination with low- and high-charge ratio complexes
Description: A volume of 10 μL supernatant was transferred to a 96 well plate for GpLuc measurement. Then, coelenterazine working solution (100 μM) was prepared (1 mL coelenterazine stock solution (4.72 mM in EtOH) in 49 mL phosphate buffered saline supplemented with 5 mM NaCl, pH 7.2). A volume of 100 μL coelenterazine working solution was used as a substrate for GpLuc and measured after 5 seconds in a commercially available microplate reader.
As a read-out for transfection efficiency, […] mRNA (SEQ ID:NO 15) was used as a cargo. A successful transfection with the cargo leads to the translation of the luciferase protein and to a secretion of Gp luciferase protein into the cell culture supernatant.
For a subset on hydrogel, a volume of 0.2 mL Sol8 cells (20.000 cells) were seeded in 96 well glass bottom plates (Softwell Hydrogel coated with collagen (elasticity E=12 kPa)). For another subset without hydrogel, a volume of 0.2 mL with 10.000 Sol8 cells per well were seeded in a 96 well glass bottom plates.
After removing the medium from each well, 100 μL DMEM medium (with 2% horse serum) was added to each well. […] Twenty-four hours post transfection, 10 μL of supernatant of each well was extracted and used for further luminescence analysis, which was performed as described in Example 5.

Structure (SMILES): CCCCC/C=C\C/C=C\CCCCCCCCC1(CCCCCCCC/C=C\C/C=C\CCCCC)OCC(CCN(C)C)O1 (stereo not drawn) [KC2, 2,2-dilinoleyl-4-(2-dimethylaminoethyl)[1,3]-dioxolane]
- transfection efficiency compared to PB83 polymer alone ([1]; combination with polymer PB83, high-charge complexes (N/P 4), 1 and 2 nmol/μg RNA lipid): this effect was observable

Structure (SMILES): CCCCC/C=C\C/C=C\CCCCCCCCC(CCCCCCCC/C=C\C/C=C\CCCCC)OC(=O)CCCN(C)C [MC3, (6Z,9Z,28Z,31Z)-heptatriaconta-6,9,28,31-tetraen-19-yl-4-(dimethylamino)butanoate]
- transfection efficiency compared to PB83 polymer alone ([1]; combination with polymer PB83, low charge complexes (N/P 0.7), 0.4 and 1 nmol/μg RNA lipid): increase in transfection efficiency

Structure (SMILES): CCCCCCCC/C=C\CCCCCCCC(=O)OCC(C[N+](C)(C)C)OC(=O)CCCCCCC/C=C\CCCCCCCC.[Cl-] (stereo not drawn) [N-[1-(2,3-dioleoyloxy)propyl]-N,N,N-trimethylammonium chloride]
- increase of expression levels in Sol8 cells [2]: effective
